The test system of test [1] is ICAM-1. Kind of test: Adhesion protein expression inhibitory activity, ICAM-1. The settings on record: human umbilical vascular endothelial cells, TNF-α, 360 min. It is filed as cell-based. The procedure:
(§1) Adhesion Protein Expression Inhibitory Activity The various concentrations of test compounds were added to the human umbilical cord-derived vascular endothelial cells [sold by Klabo] which were seeded in the gelatin coat plate and the mixture was incubated at 37° C. for 15 minutes. Then, the human tumor necrosis factor-α[TNF-α; sold by Genzyme] was added therein to the final concentration of 1 ng/ml and incubation was carried out at 37° C. for 3 hours for expression of ELAM-1 and for 6 hours for that of ICAM-I. After the reaction, the cells were fixed using glutaraldhyde and the expression amount of ELAM-1 and ICAM-1 was measured by the cell-ELISA method. That is, the expression was determined by […] the adhesion proteins on the cells in the system using anti-ELAM-1 antibody BBA-2 and anti-ICAM-1 antibody BBA4 as the first antibody as well as horseradish peroxidase-labeled rabbit anti-mouse IgG antibody as the second antibody.

Test [2] concerns PAF induced respiratory tract constriction. Put plainly: PAF induced respiratory tract constriction inhibitory activity. Type of test: in vivo, guinea pig (Hartley). The settings on record: intravenously. An excerpt: PAF Induced Respiratory Tract Constriction Inhibitory Activity Male and female Hartley guinea pigs, weighing about 100 g, were used. The guinea pigs were fixed at a dorsal position under urethane anethesia (1.5 g/kg, i.p.). One leg of a cannula (having four legs) was inserted in the trachea and two of the other three legs were bound to the respirator (Harvard apparatus rodent respirator). The remaining one leg (side branch) was bound to the bronchospasm transducer 7.020 (Ugobasile). Under the conditions of 5 to 7 ml of air supply/time, 70 times/min. of supply time and 10 cm H2 O of pulmonary pressure load, the amount of over flow air was recorded on a Rectigraph (Rectigraph-8S, Saneissoki) via the transducer. After Gallamine […] treatment (1 mg/kg, i.v.), PAF was administered intravenously (1.0 μg/kg) and the maximum respiratory tract constriction response was observed after 30 seconds. Under these conditions, the inhibitory activity of the test compounds were examined.

The subject of test [3] is ELAM-1. Put plainly: Adhesion protein expression inhibitory activity, ELAM-1. Type of test: cell-based. The following applies: 13 μM, human umbilical vascular endothelial cells, TNF-α; 180 min. As for the experimental part:
as §1

For test [4], the system named is acute renal failure induced by renal ischemia followed by reperfusion in rats. Kind of test: Effect on acute renal failure induced by renal ischemia-reperfusion. It is filed as in vivo, rat (Sprague-Dawley). The following applies: 50 mg/kg, orally, 20 hours of reperfusion. The procedure: Effect On Acute Renal Failure Induced By Renal Ischemia-Reperfusion Male Sprague-Dawley rats (6 to 7 weeks old) were anesthetized using pentobarbital sodium (50 mg/kg, i.p.) and bilateral renal arteries were completely occluded for 45 minutes followed by reperfusion. After 20 hours of the reperfusion, the blood was collected from the abdominal aorta under anesthesia and the blood urea nitrogen (BUN) was determined.

Test [5] deals with T1, 5-Lipoxygenase (Rattus norvegicus, UniProt P12527).
T1 construct: rat basophilic leukemia cell suspension; endogenous in cells
T1 sequence (P12527 1-673): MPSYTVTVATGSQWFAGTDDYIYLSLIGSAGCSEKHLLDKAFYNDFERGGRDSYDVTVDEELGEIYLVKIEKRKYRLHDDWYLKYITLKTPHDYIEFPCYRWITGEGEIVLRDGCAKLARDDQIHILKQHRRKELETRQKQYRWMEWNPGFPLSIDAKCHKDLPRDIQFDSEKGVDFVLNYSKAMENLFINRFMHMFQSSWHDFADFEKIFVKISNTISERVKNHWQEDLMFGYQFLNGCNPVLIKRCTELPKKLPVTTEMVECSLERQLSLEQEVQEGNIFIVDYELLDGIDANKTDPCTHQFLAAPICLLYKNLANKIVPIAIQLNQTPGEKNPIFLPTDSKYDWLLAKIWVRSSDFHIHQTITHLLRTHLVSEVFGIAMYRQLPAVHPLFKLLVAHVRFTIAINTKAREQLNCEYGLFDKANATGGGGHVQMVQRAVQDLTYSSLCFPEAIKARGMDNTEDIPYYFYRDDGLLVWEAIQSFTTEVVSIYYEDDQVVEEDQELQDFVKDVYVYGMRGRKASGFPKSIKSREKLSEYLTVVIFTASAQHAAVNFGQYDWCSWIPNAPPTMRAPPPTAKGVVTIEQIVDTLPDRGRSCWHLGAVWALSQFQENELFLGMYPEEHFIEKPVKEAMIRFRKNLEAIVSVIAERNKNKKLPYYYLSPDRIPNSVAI
Put plainly: 5-Lipoxygenase inhibitory activity in rat basophilic leukemia cells. Type of test: cell-based. The procedure:
5-Lipoxygenase Inhibitory Activity […] Then, 0.1 ml of mast cell medium containing 50 μg of arachidonic acid and 1 μg of calcium ionophore (A-23187) were added and the mixture was allowed to stand at 37° C. for 15 minutes. Ethanol (1 ml) was added thereto and the mixture was shaken well, and filtered (Membrane filter, 0.45 μm). […] As a control, the measurement was carried out according to the same manner except that 0.01 ml of the solvent used for dissolving the test compound was used in place of the test compound. The inhibitory percentage (%) was calculated from the following equation to obtain IC50.

In test [6] the test system is ART (antigen-responding T-cell). Kind of test: In vitro ART (antigen-responding T-cell) proliferation test. Type of test: cell-based, Lewis rat. The following applies: Rattus norvegicus, T-cell, read-out: % Inhibition of ART growth.
The test system of test [7] is Mouse acetic acid writhing. Put plainly: Mouse acetic acid writhing inhibitory activity. The settings on record: Mus musculus, po, 20 min, orally, read-out: Inhibitory percentage (acetic acid writhing). Type of test: in vivo, mouse (Slc: ICR). As for the experimental part:
Mouse Acetic Acid Writhing Inhibitory Activity
Ten male Slc: ICR mice, 4 weeks old, per 1 group were used. A test compound was administered orally, and after 30 minutes, 0.1 ml/10 g body weight of physiological saline containing 0.6% acetic acid was injected intraperitoneally. For 20 minutes, writhing (in agony condition) response by administration of acetic acid was counted regarding individual animals. The inhibitory percentage relative to the mean response counts of a control group was calculated regarding respective animals in a test compound administration group. The test compound was suspended in 5% gum arabic solution, and the administration volume was 0.2 ml/10 g.
In general terms: An intraperitoneal irritant provokes the stretching counted in writhing tests.

Test [8] relates to Rat carrageenin pedal edema. Kind of test: Rat carrageenin pedal edema inhibitory activity. The settings on record: Rattus norvegicus, po, 3 h, 50 mg/kg, orally, 3 hours after carrageenin; read-out: Inhibitory percentage (carrageenin pedal edema). Type of test: in vivo, rat (Jcl: SD). Summed up:
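Male Jcl:SD rats (6 weeks, 160-220 g) received test compound orally as a 5% gum arabic suspension, topped up with water to 5 ml/rat. One hour later 0.05 ml of 1% carrageenin was injected subcutaneously into the right hind foot pad. Edema volume was the foot volume increase 3 hours post-injection.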

Test [9] has as its system brewer's yeast induced pyrexia. Kind of test: Antipyretic activity (brewer's yeast induced pyrexia). It is filed as in vivo, rat (DS line). The settings on record: orally; for Antipyretic activity, .increment. °C.: at peak time. In outline:
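Male DS rats (7 weeks, 200-240 g) made febrile by s.c. 15% brewer's yeast 18 h before dosing; only animals at ≥38.5° C used. Compound given orally versus solvent control, with rectal temperature taken by thermistor hourly for 5 h post-dose.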

Test [10] has as its target T2, cyclooxygenase (Rattus norvegicus, UniProt Q63921).
T2 construct: from tissue; host or cells: platelets in platelet-rich plasma from rat abdominal aorta blood (Jcl:wistar, male)
T2 sequence (Q63921 27-602): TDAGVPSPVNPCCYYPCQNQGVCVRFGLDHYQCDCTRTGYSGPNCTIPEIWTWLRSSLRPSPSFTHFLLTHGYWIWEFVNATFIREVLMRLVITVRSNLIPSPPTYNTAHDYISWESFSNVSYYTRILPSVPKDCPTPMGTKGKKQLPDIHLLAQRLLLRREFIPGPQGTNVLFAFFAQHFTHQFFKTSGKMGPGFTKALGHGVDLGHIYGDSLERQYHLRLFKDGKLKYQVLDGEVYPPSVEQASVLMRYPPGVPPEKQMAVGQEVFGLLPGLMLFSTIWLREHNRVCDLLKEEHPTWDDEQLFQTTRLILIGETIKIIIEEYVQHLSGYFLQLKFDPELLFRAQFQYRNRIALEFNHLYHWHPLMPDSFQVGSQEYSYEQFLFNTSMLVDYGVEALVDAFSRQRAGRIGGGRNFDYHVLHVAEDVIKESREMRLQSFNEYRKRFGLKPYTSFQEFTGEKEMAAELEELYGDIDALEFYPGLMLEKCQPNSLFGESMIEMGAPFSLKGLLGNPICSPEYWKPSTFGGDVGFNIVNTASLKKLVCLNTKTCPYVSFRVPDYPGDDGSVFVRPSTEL
Put plainly: Cyclooxygenase inhibitory activity (HHT formation from arachidonic acid in rat platelet-rich plasma). Type of test: cell-based, rat (Jcl:wistar).

The test system of test [11] is Rat adjuvant arthritis. Kind of test: Activity to rat adjuvant arthritis. Type of test: in vivo, rat (SD or Lewis). The settings on record: 50 mg/kg, day 0 to day 13.
Test [12] has as its system Mouse phenylquinone writhing. Put plainly: Mouse phenylquinone writhing inhibitory activity. The settings on record: Mus musculus, po, 20 min, 50 mg/kg, orally; read-out: Inhibitory percentage (phenylquinone writhing). It is filed as in vivo, mouse (Slc: ICR). Summed up:
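Male ICR mice (4 weeks, 17–24 g) dosed orally with compound suspended in 5% gum arabic. After 30 min, 0.02% phenylquinone (0.1 ml/10 g) given i.p.; writhing and stretching responses counted over 20 min.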

SMILES strings stand for the structures. pIC50: −log10 of the molar value. Where two headings read alike, the source gives them in different places.

Usually pIC50 stands for the negative decadic logarithm of the IC50, by convention in mol/L. As usually defined, the inhibition is the change of the read-out against control, counted positive when it falls.

`Cl.Cl.O=c1c2ccccc2n(CCCCSc2ccncc2)c(=S)n1CCCCSc1ccncc1` [Example 200, 1,3-bis[4-(4-pyridylthio)butyl]quinazoline-2(1H)-thion-4(3H)-one dihydrochloride]: the “Expression Inhibitory Potency, ICAM-1” value in [1] (13 μM) amounted to 83%. Further, in test [2] (10 mg/kg), the “Inhibitory activity (PAF induced respiratory tract constriction)” value (shortened to “Inhibitory activity”) worked out at 61.4%. Also, the “Expression Inhibitory Potency, ELAM-1” value in test [3] was 71%.
As for `O=C1SC(=Cc2ccccc2)C(=O)N1CCCCSc1ccncc1` [Example 150, 4-[4-(5-benzylidene-2,4-thiazolidinedione)butylthio]pyridine], in test [4], the Blood urea nitrogen came out at 76.8 ± 16.9 mg/dL. In addition, the “Expression Inhibitory Potency, ICAM-1” value in test [1] (30 μM) was determined as 94%. The pIC50 in [5] (5-HETE, read-out: 5-Lipoxygenase inhibitory activity, 5-HETE IC50) was 5.59; in test [5] (LTB4, read-out: 5-Lipoxygenase inhibitory activity, LTB4 IC50), 5.60. For the same compound, the inhibition at 1 µM in [6] is -31%. The inhibition at 10 µM in [6] came out at 75%. Also, in [7], the inhibition in vivo at 50 mg/kg is 54%.
Consider `O=c1c2ccccc2oc(=S)n1CCCSc1ccncc1` [Example 141, 3-[3-(4-pyridylthio)propyl]-2H-1,3-benzoxadine-2-thion-4(3H)-one], for which the inhibition in vivo at 50 mg/kg in test [8] worked out at 36%. For the same compound, in test [9] (12.5 mg/kg), the “Antipyretic activity, peak time” value is given as 3 h and the “Antipyretic activity, .increment. °C.” value was -1.60 °C. Moreover, in test [9] (50 mg/kg), the “Antipyretic activity, peak time” value is 3 h and the “Antipyretic activity, .increment. °C.” value is -2.40 °C. Also, the “Expression Inhibitory Potency, ICAM-1” value in test [1] (3 μM) is 21%. Further, the “Expression Inhibitory Potency, ICAM-1” value in [1] (30 μM) was determined as 54%. In test [6], the inhibition at 1 µM is -21% and the inhibition at 10 µM is 64%. The “Inhibitory activity” value in [2] (3 mg/kg) is given as 51.7%.
Compound `CCCC=C1SC(=O)N(CCCCSc2ccncc2)C1=O` [Example 171, 4-[4-(5-propylmethylene-2,4-thiazolidinedione)butylthio]pyridine] showed a Blood urea nitrogen in test [4] of 64 ± 11 mg/dL. In test [1] (13 μM), the “Expression Inhibitory Potency, ICAM-1” value worked out at 75%. Also, in test [6], the inhibition at 1 µM was found to be 96% and the inhibition at 10 µM was 41%. For the same compound, in [3], the “Expression Inhibitory Potency, ELAM-1” value turned out to be 94%.
Regarding `O=C1SC(=Cc2cccs2)C(=O)N1CCCCSc1ccncc1` [Example 157, 4-[4-[5-(2-thienylmethylene)-2,4-thiazolidinedione]butylthio]pyridine], in test [4], the Blood urea nitrogen was found to be 62.4 ± 7.0 mg/dL. Further, in test [1] (30 μM), the “Expression Inhibitory Potency, ICAM-1” value was found to be 78%. In addition, in test [6], the inhibition at 1 µM was -50% and the inhibition at 10 µM came out at 62%.
Turning to `O=c1c2ccccc2oc(=S)n1CCCCSc1ccncc1` [Example 162, 3-[4-(4-pyridylthio)butyl]-2H-1,3-benzoxadine-2-thion-4(3H)-on], the inhibition in vivo at 50 mg/kg in [8] is 34%. In test [6], the inhibition at 1 µM was -31% and the inhibition at 10 µM was -54%. For the same compound, in [2] (3 mg/kg), the “Inhibitory activity” value amounted to 39.8%.
In test [10], `Cl.O=C(N(CCCSc1ccncc1)Cc1ccccc1)C(F)(F)F` [Example 73, 4-[3-(N-benzyl-N-trifluoroacetylamino)propylthio]pyridine hydrochloride] gave a pIC50 of 5.55. The compound further returned a Blood urea nitrogen in [4] of 68 ± 3 mg/dL. For the same compound, in test [9] (50 mg/kg), the “Antipyretic activity, peak time” value came out at 2 h and the “Antipyretic activity, .increment. °C.” value is -0.65 °C. In addition, in test [1] (30 μM), the “Expression Inhibitory Potency, ICAM-1” value came to 42%. Also, in [11], the Swelling inhibitory percentage was determined as 52%. In addition, in test [6], the inhibition at 1 µM was determined as 23% and the inhibition at 10 µM stood at 82%. Further, the inhibition in vivo at 50 mg/kg in test [12] was determined as 75%.
In test [10], `O=c1c2ccccc2n(CCCCSc2ccncc2)c(=O)n1CCCCSc1ccncc1` [Example 147, 1,3-bis[4-(4-pyridylthio)butyl]quinazolin-2,4(1H,3H)-dione] had a pIC50 of 5.74. Moreover, the “Expression Inhibitory Potency, ICAM-1” value in test [1] (13 μM) was 83%. Also, in test [6], the inhibition at 1 µM is 9% and the inhibition at 10 µM came out at 72%. The “Inhibitory activity” value in [2] (3 mg/kg) was found to be 50.7%. In addition, the inhibition in vivo at 50 mg/kg in [7] was 46%. Besides, in test [3], the “Expression Inhibitory Potency, ELAM-1” value came out at 96%.
